In patent US20050233461A1, “High-throughput methods and systems for screening of compounds to treat/prevent kidney disorders” (priority 2002, published 2005):
Structures can show the parent of a compound that is named as a salt. Where two headings read alike, the source gives them in different places.

What was measured:
[1] = high throughput screen of components for modifying calcium oxalate crystal growth (crystal imaging)
Procedure: Next, the seed crystals are incubated in supersaturated calcium oxalate medium. This medium may have one or more of components for testing. Nucleation and changes in a crystal property (such as crystal growth) are detected by comparing signals obtained from a sample at different times and/or after changing the medium. For example, a signal for a sample can be taken at the beginning of incubation, and then optionally at one or more times during incubation, and then at the end of incubation. The number and time for obtaining signals from or screening a sample will depend on the particular experiment and will be readily apparent to the skilled artisan. These signals or screens of samples may be photographs of birefringent spots, the size of the spots (measured in pixels), calculations based on the pixels and their distribution in a birefringence- or plain light-based image, in-situ Raman spectroscopy to monitor growth or determine the composition of one or more crystals, signals for the concentration of component(s) in the medium, and the like.
FIG. 2 illustrates one such embodiment. Sodium oxalate and calcium chloride solutions are prepared during steps 200 and 205 respectively. Following mixing during step 210 to obtain supersaturated calcium oxalate medium, also described in FIG. 1, monitoring while incubating during step 215 detects the formation of seed crystals. Next, the medium is removed during step 220 followed by addition of fresh medium containing test components during step 225. The test component(s) are preferably added to the sodium oxalate solution used to make the medium. Alternatively, they could be added in the calcium chloride solution for making the medium, or in a separate solution, or as solids, or even mixed in, or any combination thereof.
Some processing of arrays is also seen in the method illustrated in FIG. 2. Further incubation of seed crystals during step 230 and imaging during step 235 provide data about the growth and/or nucleation of crystals. The high throughput method of FIG. 2 includes estimating a nucleation and/or growth rate from a number of birefringent spots. An increase in the nucleation rate, or observing little or no crystal growth, ascribable to a component may indicate a therapeutic use for treating diseases, conditions, or disorders associated with calculi or crystal deposition (e.g., nephrolithiasis) by reducing the average size of the crystals, stones or calculi to facilitate excretion. Alternatively, a significant decrease in the nucleation rate ascribable to a component may indicate a therapeutic use for treating diseases, conditions, or disorders associated with calculi or crystal deposition (e.g., nephrolithiasis) by decreasing the rate of stone or calculi formation.
The photograph of the illuminated crystals, e.g., obtained in step 235 of FIG. 2, may be further analyzed to estimate a number of pixels corresponding to a crystal spot.
Other properties of crystals may also be obtained from the pixel measurements in step 240 of FIG. 2. The photograph of the illuminated crystals also allows an estimate of a long and a short dimension among many possible measures. These reflect the habit of the crystal spot and may be used to predict crystals that are likely to be excreted more easily. For instance, small and even shaped crystals are more likely to be excreted than spiny crystal shapes, thus permitting high throughput screening for promising therapeutic candidates.
In FIG. 7, during step 700 one or more substances of interest are identified. […] The identified substances, added in solutions of calcium chloride or sodium oxalate, are subjected to screening via a high-throughput growth inhibitor screen during step 705. Accordingly, growth of crystals in supersaturated calcium oxalate medium is observed in the presence or absence of identified substances. Such growth may be of seed crystals or may include nucleation of crystals as well as growth.

[2] = turbidity based assay of crystal nucleation and growth in supersaturated calcium oxalate solutions; conditions: FIG. 10 and FIG. 11
Text: FIG. 10 illustrates the effect of citrate on growth and nucleation of crystals in supersaturated calcium oxalate solutions as measured by turbidity at 620 nm.
FIG. 11 is an example of turbidity based assay showing crystal nucleation and growth in supersaturated calcium oxalate solutions prepared in accordance with the method of FIG. 1.
The system also includes means for preparing metastable formulations such as supersaturated solutions. In a preferred design, supersaturated media for nucleating and growing crystals are prepared by mixing two stable components to give rise to a metastable supersaturated solution. […] This supersaturated mixture may be monitored after incubation for a predetermined duration during step 115. […]
Preferably, calcium oxalate crystals are also used to seed the supersaturated calcium oxalate solution in some samples to assess their growth or the lack thereof. Absorbance at about 620 nm provides a measure of turbidity and a decrease in turbidity indicates either aggregation or crystals/precipitate or reduction in the precipitation/crystal growth of calcium oxalate crystals. It should be noted that turbidity may be measured at other wavelengths as well including wavelengths corresponding to visible light and ultraviolet light. Preferably, but not as a requirement, turbidity is measured by evaluating light scattered at an angle to the incident light. […]

[3] = supersaturated calcium oxalate, amounts and concentrations in FIGS. 9A and 9B

Compound | overall effect on calcium oxalate crystals (number of crystals) [1, 3] | large (intermediate to large) crystals: number / size observed [1, 3] | also measured
atrolactic acid hemihydrate | – | – | large (intermediate to large) crystals: number / size observed [1]: reduction in large crystals
O=C(O)C(O)c1ccccc1 (stereo not shown) [mandelic acid] | little effect | – | –
CCCN(CCC)S(=O)(=O)c1ccc(C(=O)O)cc1 [probenicid, reference compound] | little effect | – | small crystals: number observed [1, 3]: a few more small crystals
O=C(O)C(O)c1ccc(Br)cc1 (stereo not shown) [4-bromomandelic acid] | – | larger sized crystals being formed | crystal habit / form of material observed [1, 3]: absence of plate like structures
CN(C)c1ccc2nc3ccc(=[N+](C)C)cc-3sc2c1 [methylene blue, reference compound] | – | reduction in large crystals | –
COc1ccc2c(c1)c(CC(=O)O)c(C)n2C(=O)c1ccc(Cl)cc1 [indomethacin, reference compound] | – | reduction in the number of large crystals | small crystals: number observed [1, 3]: little change in the number of small crystals
CC(=O)OC[C@H]1O[C@@](COC(C)=O)(O[C@H]2O[C@H](COC(C)=O)[C@@H](OC(C)=O)[C@H](OC(C)=O)[C@H]2OC(C)=O)[C@@H](OC(C)=O)[C@@H]1OC(C)=O [sucrose octaacetate] | increased number (countable) of crystals | – | –
O=C(O)CNC(=O)c1ccccc1 [hippuric acid] | little effect | – | –
NS(=O)(=O)c1cc(C(=O)O)c(NCc2ccco2)cc1Cl [furosemide, reference compound] | – | many more large crystals | –
O=C(O)[C@H](O)[C@@H](O)[C@H](O[C@@H]1O[C@H](CO)[C@H](O)[C@H](O)[C@H]1O)[C@H](O)CO [lactobionic acid] | many small and large crystals | – | –
O=C(O)CC(O)(CC(=O)O)C(=O)O [sodium citrate] | – | – | turbidity of supersaturated calcium oxalate compared to supersaturated calcium oxalate by itself ([2]; 3 mM sodium citrate, turbidity at 620 nm): dramatically reduces the turbidity; formation of calcium oxalate crystals in a supersaturated calcium oxalate solution [2]: effective, although limited, in reducing the formation of calcium oxalate crystals
O=C([O-])[C@H](O)[C@@H](O)[C@H](O[C@@H]1O[C@H](CO)[C@H](O)[C@H](O)[C@H]1O)[C@H](O)CO.O=C([O-])[C@H](O)[C@@H](O)[C@H](O[C@@H]1O[C@H](CO)[C@H](O)[C@H](O)[C@H]1O)[C@H](O)CO.[Ca+2] [lactobionic acid hemi calcium salt] | – | presence of very large crystals in some wells | –
O=C(O)C1OC(C(=O)O)C(C(=O)O)C1C(=O)O (stereo not shown) [tetrahydrofuran-2,3,4,5-tetracarboxylic acid] | – | reduced number of intermediate to large crystals | small crystals: number observed [1, 3]: increased number of small crystals
CCCCCCCCCCCCCCCCC(C(=O)O)C(O)(CC(=O)O)C(=O)O (stereo not shown) [agaric acid] | – | – | crystal habit / form of material observed [1, 3]: formation of an emulsion/suspension
